Like-named read-outs stand apart in the source and are kept apart here.
Key:
HXB2 HIV-1 strain = assay: Multiple-round infection assay in MT4 cells, HXB2; assay type: cell-based
Procedure: Antiretroviral activity of BDM-2 and its analogs was first evaluated in lymphoblastoid cell line MT4 and in primary human T lymphocytes using NL4-3 and HXB2 laboratory HIV-1 isolates.
(§1) MT4 cells growing exponentially at the density of 10^6/mL were infected with HIV-1 strain NL4-3 at a multiplicity of infection (MOI) of 0.001 for 2 h in the presence of different concentrations of compounds, and the CellTiter-Glo luminescent reagent (Promega) was used to quantify cell viability as described previously ([12]).

NL4-3 HIV-1 strain = assay: Multiple-round infection assay in MT4 cells, NL4-3; assay type: cell-based
[1] = Cytotoxicity assay in MT4 cells; assay type: cell-based; conditions: human, MT4 cells (proliferating human T-cell line), CellTiter-Glo
Excerpt: Growth inhibition was monitored in a proliferating human T-cell line (MT4) with different concentrations of compounds, using the CellTiter-Glo luminescent reagent (Promega), as previously described ([12]).

[2] = test system: lab-adapted and clinical HIV-1 isolates; assay: Infection assays in primary T CD4+ lymphocytes; assay type: cell-based; conditions: Human immunodeficiency virus 1, Lymphocyte
[3] = test system: VSV-G-pseudotyped NL4-3Δenv-luc; assay: microbe, parasite or virus in culture; assay type: cell-based, HIV-1; conditions: for EC50: Human immunodeficiency virus 1, NL43, MT4, read-out: EC50 in single-round infection
[4] = test system: recombinant NL4-3 viruses with polymorphisms at IN positions 124 and 125; assay: Multiple-round infection of MT4 cells with recombinant NL4-3 viruses polymorphic at IN positions 124 and 125; assay type: cell-based, HIV-1
Excerpt: Located on the HIV-1 IN CCD dimerization interface, the principal INLAI binding pocket overlaps with a hot spot of amino acid sequence polymorphism involving IN residues 124 and 125 ([16]). To test if the new INLAIs maintained antiviral activity against major polymorphisms, we introduced all major combinations of residues found in circulating HIV-1 strains at positions 124 and 125 into NL4-3 HIV-1 molecular clone. In total, we evaluated 15 such combinations that collectively covered 98% of all HIV-1 clade polymorphisms involving these positions ([48]). To gauge effects on the antiviral activity, we calculated the EC50 fold change (FC) relative to wild type NL4-3 HIV-1 strain that features Thr124 and Thr125 (TT; specific polymorphisms are referred to by a single letter amino acid code).
as §1

[5] = test system: primary HIV-1 isolates with polymorphisms at IN positions 124 and 125; assay: Multiple-round infection of MT4 cells with primary HIV-1 isolates polymorphic at IN positions 124 and 125; assay type: cell-based; conditions: primary isolate
Procedure: Next, we evaluated the potency of the BDM-2 series of INLAIs against several primary HIV-1 isolates with polymorphisms at IN positions 124 and 125.
as §1

[6] = test system: HIV-1 strains resistant to INSTIs, NRTIs, NNRTIs or PIs; assay type: cell-based
Procedure: To this end, we used both recombinant viruses constructed by introducing described drug resistance mutations into NL4-3 HIV-1 clone as well as drug-resistant clinical HIV-1 isolates.
as §1

[7] = read-out: EC50 NP1525 (CRF01_AE)
[8] = INSTI-resistant, NL4-3 background
[9] = INSTI-resistant, primary patient-derived strain

C[C@@H]1CCO[C@H]2Cn3cc(C(=O)NCc4ccc(F)cc4F)c(=O)c(O)c3C(=O)N12 [DTG, dolutegravir, reference compound]
EC50 (HXB2 HIV-1 strain; Human immunodeficiency virus 1, HXB2, multiple-round infection, MT4 cells, mean ± SD, n > 5, read-out: EC50 HXB2): 1.9 ± 1 nM
EC90 (NL4-3 HIV-1 strain; Human immunodeficiency virus 1, NL43, multiple-round infection, MT4 cells, from dose response curves, read-out: EC90 NL4-3): 6.3 ± 4.4 nM
EC50 (NL4-3 HIV-1 strain; Human immunodeficiency virus 1, NL43, multiple-round infection, MT4 cells, mean ± SD, n > 5, read-out: EC50 NL4-3): 2.7 ± 1.3 nM
Selectivity index CC50/EC50 NL4-3 (NL4-3 HIV-1 strain; MT4 cells): 18,888
CC50 [1]: 51000 ± 28000 nM
EC50 ([2]; read-out: EC50 33913N (B)): 0.35 ± 0.42 nM
EC50 ([2]; read-out: EC50 HXB2 (B)): 0.17 ± 0.01 nM
EC50 ([2]; read-out: EC50 KER2008 (A)): 0.4 ± 0.21 nM
EC50 ([2]; read-out: EC50 NL4-3 (B)): 0.53 ± 0.16 nM
EC50 [2, 7]: 0.21 ± 0.09 nM
EC50 ([2]; read-out: EC50 NP1538 (B)): 0.29 ± 0.13 nM
EC50 ratio (single/multiple-round infection) [3]: 0.16
EC50 [3]: 0.44 ± 0.13 nM
Fold change in EC50 relative to parental NL4-3, AA ([4]; recombinant NL4-3, IN 124/125 AA): 1
Fold change in EC50 relative to parental NL4-3, AM ([4]; recombinant NL4-3, IN 124/125 AM): 2
Fold change in EC50 relative to parental NL4-3, AT ([4]; recombinant NL4-3, IN 124/125 AT): 1
Fold change in EC50 relative to parental NL4-3, AV ([4]; recombinant NL4-3, IN 124/125 AV): 2
Fold change in EC50 relative to parental NL4-3, GA ([4]; recombinant NL4-3, IN 124/125 GA): 2
Fold change in EC50 relative to parental NL4-3, GT ([4]; recombinant NL4-3, IN 124/125 GT): 2
Fold change in EC50 relative to parental NL4-3, NA ([4]; recombinant NL4-3, IN 124/125 NA): 1
Fold change in EC50 relative to parental NL4-3, NT ([4]; recombinant NL4-3, IN 124/125 NT): 1
Fold change in EC50 relative to parental NL4-3, NV ([4]; recombinant NL4-3, IN 124/125 NV): 2
Fold change in EC50 relative to parental NL4-3, SA ([4]; recombinant NL4-3, IN 124/125 SA): 1
Fold change in EC50 relative to parental NL4-3, ST ([4]; recombinant NL4-3, IN 124/125 ST): 2
Fold change in EC50 relative to parental NL4-3, TA ([4]; recombinant NL4-3, IN 124/125 TA): 1
Fold change in EC50 relative to parental NL4-3, TM ([4]; recombinant NL4-3, IN 124/125 TM): 2
Fold change in EC50 relative to parental NL4-3, TV ([4]; recombinant NL4-3, IN 124/125 TV): 2
Fold change in EC50 relative to parental NL4-3, CAM2BBY (CRF02) ([5]; IN 124/125 AA): 1
Fold change in EC50 relative to parental NL4-3, E0836M4 (D) ([5]; IN 124/125 AA): 2
Fold change in EC50 relative to parental NL4-3, KER2008 (A) ([5]; IN 124/125 AA): 1
Fold change in EC50 relative to parental NL4-3, NP1525 (CRF01) ([5]; IN 124/125 AA): 2
Fold change in EC50 relative to parental NL4-3, NP1695 (CRF02) ([5]; IN 124/125 AA): 2
Fold change in EC50 relative to parental NL4-3, TZA125 (C) ([5]; IN 124/125 AA): 2
Fold change in EC50 relative to parental NL4-3, KSM4030 (A) ([5]; IN 124/125 GA): 2
Fold change in EC50 relative to parental NL4-3, vGA (C) ([5]; IN 124/125 GA): 2
Fold change in EC50 relative to parental NL4-3, 99ET14 (C) ([5]; IN 124/125 NA): 2
Fold change in EC50 relative to parental NL4-3, NP1538 (B) ([5]; IN 124/125 NA): 1
Fold change in EC50 relative to parental NL4-3, vNA_1 (B) ([5]; IN 124/125 NA): 2
Fold change in EC50 relative to parental NL4-3, vNA_2 (CRF02) ([5]; IN 124/125 NA): 2
Fold change in EC50 relative to parental NL4-3, vNV (B) ([5]; IN 124/125 NV): 1
Fold change in EC50 relative to parental NL4-3, vSA_1 (B) ([5]; IN 124/125 SA): 1
Fold change in EC50 relative to parental NL4-3, vSA_2 (CRF02) ([5]; IN 124/125 SA): 2
Fold change in EC50 relative to parental NL4-3, vTA_1 (B) ([5]; IN 124/125 TA): 1
Fold change in EC50 relative to parental NL4-3, vTA_2 (CRF02) ([5]; IN 124/125 TA): 1
Fold change in EC50 relative to NL4-3, G140S [6, 8]: 0.6
Fold change in EC50 relative to NL4-3, G140S/Q148H [6, 8]: 2
Fold change in EC50 relative to NL4-3, N155H [6, 8]: 0.3
Fold change in EC50 relative to NL4-3, Q148H [6, 8]: 0.3
Fold change in EC50 relative to NL4-3, Y143R [6, 8]: 0.4
Fold change in EC50 relative to NL4-3, E92Q/N155H (pat.) [6, 9]: 1
Fold change in EC50 relative to NL4-3, G140S/Q148H (pat.) [6, 9]: 3
Fold change in EC50 relative to NL4-3, T97A/N155H (pat.) [6, 9]: 3
Fold change in EC50 relative to NL4-3, NLAY351717 ([6]; NRTI-resistant clone): 0.4
Fold change in EC50 relative to NL4-3, NLAY351753 ([6]; NRTI/NNRTI-resistant clone): 1
Fold change in EC50 relative to NL4-3, K103N/Y181C ([6]; NRTI/NNRTIs group, NL4-3 background): 0.3
Fold change in EC50 relative to NL4-3, ARP-4595 ([6]; PI-resistant virus): 1
Fold change in EC50 relative to NL4-3, ARP-4596 ([6]; PI-resistant virus): 0.5
Fold change in EC50 relative to NL4-3, ARP-11801 ([6]; PI-resistant virus): 1
Fold change in EC50 relative to NL4-3, ARP-11803 ([6]; PI-resistant virus): 1
Fold change in EC50 relative to NL4-3, ARP-11807 ([6]; PI-resistant virus): 2
Fold change in EC50 relative to NL4-3, ARP-11808 ([6]; PI-resistant virus): 1

Cc1nnc(C(=O)NC(C)(C)c2nc(C(=O)NCc3ccc(F)cc3)c(O)c(=O)n2C)o1 [RAL, raltegravir]
EC50 (HXB2 HIV-1 strain; Human immunodeficiency virus 1, HXB2, MT4, read-out: EC50 HXB2): 8.7 ± 6 nM
EC50 (NL4-3 HIV-1 strain; Human immunodeficiency virus 1, NL43, MT4, read-out: EC50 NL4-3): 14 ± 9 nM
EC90 (NL4-3 HIV-1 strain; Human immunodeficiency virus 1, NL43, MT4, read-out: EC90 NL4-3): 28 ± 14 nM
CC50 [1]: 438000 ± 29000 nM
EC50 ([2]; read-out: EC50 33913N (B)): 2.1 ± 0.1 nM
EC50 ([2]; read-out: EC50 HXB2 (B)): 2.6 ± 1.4 nM
EC50 ([2]; read-out: EC50 KER2008 (A)): 6.7 ± 4 nM
EC50 ([2]; read-out: EC50 NL4-3 (B)): 4.9 ± 2.3 nM
EC50 [2, 7]: 4 ± 1.7 nM
EC50 ([2]; read-out: EC50 NP1538 (B)): 1.7 ± 1.9 nM
EC50 [3]: 3.5 ± 1 nM
